Tests used:
[1] = test system: GABAergic neurons; assay: Current-clamp cortical slice recordings with CNO application; assay type: cell-based, mice; conditions: after CNO, hM3Dq-expressing neurons in cortical slices, 13 neurons
Experimental: Briefly, anesthetized mice receive transcardial perfusion withN-methyl-D-glucamine (NMDG)-aCSF (92 mM NMDG, 2.5 mM KCl, 1.2 mM NaH2PO4, 30 mM NaHCO3, 20 mM N-2-Hydroxyethylpiperazine-N-2-Ethane Sulfonic Acid (HEPES), 25 mM glucose, 2 mM thiourea, 5 mM Na-ascorbate, 3 mM Na-pyruvate, 0.5 mM CaCl2·4H2O, and 10 mM MgSO4·7H2O; adjusted pH to 7.3-7.4 with concentrated HCl), and the brain is gently and rapidly extracted from the skull and then cut into 300 μm-thick sections with a vibratome (Leica VT1200S). […]
Brain slices are then bathed in room-temperature recording aCSF (124 mM NaCl, 2.5 mM KCl, 1.2 mM NaH2PO4, 24 mM NaHCO3, 5 mM HEPES, 12.5 mM glucose, 2 mM CaCl2·4H2O and 2 mM MgSO4·7H2O, ˜25° C.) and whole-cell recordings are made at the auditory cortex using Multiclamp 700B amplifier (Molecular Devices, www.moleculardevices.com, Menlo Park, California, USA) and Digital 1440A digitizer (Molecular Devices, www.moleculardevices.com, Menlo Park, California, USA). […] 0.3 mL CNO (0.2 mg/mL) is gently infused into the recording chamber (5-7 mL recording aCSF) and recorded for at least 20 minutes. The firing rate is analyzed with Clampfit 11.2 (Molecular Devices, www.moleculardevices.com, Menlo Park, California, USA). […]

[2] = test system: GABAergic neurons; assay: CNO administration and in vivo recordings in the auditory cortex; set-up: species or system mice
Experimental: In vivo recordings are performed in the ACs of mice using the same surgery setup described above.
For each time point, an average of six evoked responses is used. The inventors average the LFP amplitudes every six trials (MATLAB), which represents a 1-min recording. The representative waveforms are also plotted with MATLAB (MathWorks.Inc, Natick, US; https://ww2.mathworks.cn/). […] The results are exported into Excel for offline analysis and plotting.
C57BL/6J male mice (6-7 weeks old) are anesthetized with pentobarbital (100 mg/kg) supplemented with atropine (0.05 mg/kg, Sigma). The anesthetized mice are head-fixed using a stereotaxic device (RWD Life Science; Shen Zhen, China; https://www.rwdstco.com/). […] The PHP.eB serotype virus, which readily crosses the BBB for brain transduction, is produced using standard production methods. A glass pipette tip (at an angle of […] to about 45°) is used to slowly touch the surface of the transverse venous sinus with the injection pump running at a slow speed (100 nL/min). After the glass pipette tip penetrates the vessel, the injection speed is increased to 1,000 nL/min. A total of 50 μL of the virus (1.5E12 VGs/kg of body weight, VG, vector genome) is injected.
To verify the CNO administration can suppress the response to the AS through the potentiation of inhibition, electrophysiological recordings of neuronal firing and LFP response to the AS before and after the CNO application are performed.

[3] = test system: GABAergic neurons; assay: Laser pulse induced IPSC recording in cortex; assay type: cell-based, Vgat-Cre mice; conditions: hM3Dq and DIO-ChrimsonR-mCherry injected cortex; laser 0.1 Hz; baseline 100.22±0.66%
Excerpt: FIG. 4A is a diagram showing the hM3Dq and DIO-ChrimsonR-mCherry injection into the cortex of Vgat-Cre mice.

[4] = Spontaneous locomotion detection (active time); conditions: after CNO administration in two groups
Experimental: The animals are housed separately under a standard 12-h light/dark cycle and stable temperature (23-25° C.) with full access to food and water.
A summation of each pixel value for the difference is used to decide whether the animal moves between these three frames. […] Animal movements are analyzed by the program. The active time for each mouse is determined every 24 h.
The behavioral effects after CNO intervention in the two groups are evaluated.

[5] = hM3Dq mice, n=30 recording sites

C[N+]1([O-])CCN(C2=Nc3cc(Cl)ccc3Nc3ccccc32)CC1 [CNO, clozapine-N-oxide]
mean highest firing rate in bursts [1]: 33.24±2.46 Hz
duration of activation of the new units after the CNO application ([2]; hM3Dq mice): 25 min
number of spike-sorted units after the CNO injection [2, 5]: 4.30±0.27
number of spike-sorted units before CNO injection [2, 5]: 2.73±0.27
maximum firing frequency during the bursts of the new units after CNO application ([2]; n=44 units, mean): 32.63±3.30 Hz
normalized IPSCs amplitude 35-40 min after CNO [3]: 250.62±6.46%
side effects (astrocytic reactivity and locomotion) [4]: not detected
